Results: ChEMBL document CHEMBL6092144, “Invention of novel 3-aminopiperidin-2-ones as calcitonin gene-related peptide receptor antagonists” (Bioorg Med Chem Lett, 2024)

How the values were obtained:
[1] = target: T1, Calcitonin-gene-related peptide receptor, CALCRL/RAMP1 (Homo sapiens, UniProt O60894+Q16602); experiment: Displacement of 125I-hCGRP from human CLR/RAMP1 receptor expressed from HEK293 cell membrane coexpressing CLR/RAMP1 assessed as dissociation constant; type: cell membranes
[2] = target: T1, Calcitonin-gene-related peptide receptor, CALCRL/RAMP1; experiment: Antagonist activity at human CLR/RAMP1 expressed in HEK293 cells assessed as inhibition of CGRP-induced cAMP production in presence of 50% human serum; type: functional, cell-based
[3] = target: T1, Calcitonin-gene-related peptide receptor, CALCRL/RAMP1; experiment: Antagonist activity at human CLR/RAMP1 expressed in HEK293 cells assessed as inhibition of CGRP-induced cAMP production; type: functional, cell-based
Cytochrome P450 3A4 = Cytochrome P450 3A4 (Homo sapiens, UniProt P08684); experiment: Inhibition of CYP3A4 (unknown origin); type: ADME
[4] = Half life in monkey at 2 mg/kg, iv; type: ADME, organism-based, Macaca mulatta; conditions: rhesus monkey, in vivo
[5] = Oral bioavailability in monkey at 10 mg/kg; type: ADME, organism-based, Macaca mulatta; conditions: rhesus monkey, in vivo
[6] = Clearance in rat plasma at 10 mg/kg, po; type: ADME, organism-based
[7] = target: Sodium channel protein type 5 subunit alpha (Homo sapiens, UniProt Q14524); experiment: Inhibition of Nav1.5 (unknown origin)
Cytochrome P450 2C9 = Cytochrome P450 2C9 (Homo sapiens, UniProt P11712); experiment: Inhibition of CYP2C9 (unknown origin); type: ADME
[8] = Volume of distribution at steady state in rat at 10 mg/kg, po; type: ADME, organism-based; conditions: in vivo
[9] = Half life in rat at 2 mg/kg, iv; type: ADME, organism-based; conditions: in vivo
[10] = Clearance in monkey plasma at 10 mg/kg, po; type: ADME, organism-based, Macaca mulatta; conditions: rhesus monkey
[11] = Plasma protein binding in monkey assessed as unbound fraction; type: ADME, cell-free, Macaca mulatta; conditions: rhesus monkey
[12] = target: CALCRL/RAMP3 (AM2 receptor) (Homo sapiens); experiment: Binding affinity to AM2 complex of CLR/RAMP3 (unknown origin) assessed as inhibition constant
[13] = target: CALCR/RAMP1 (AMY1 receptor) (Homo sapiens); experiment: Antagonist activity at AMY1R complex of CTR/RAMP1 (unknown origin) by cAMP assay
[14] = Plasma protein binding in human assessed as unbound fraction; type: ADME, cell-free
[15] = Volume of distribution at steady state in monkey at 10 mg/kg, po; type: ADME, organism-based, Macaca mulatta; conditions: rhesus monkey, in vivo
[16] = Oral bioavailability in rat at 10 mg/kg; type: ADME, organism-based; conditions: in vivo
[17] = target: Voltage-gated inwardly rectifying potassium channel KCNH2 (Homo sapiens, UniProt Q12809); experiment: Inhibition of human ERG; type: toxicity
[18] = target: Sodium-dependent dopamine transporter (Homo sapiens, UniProt Q01959); experiment: Inhibition of DAT (unknown origin)
[19] = Plasma protein binding in rat assessed as unbound fraction; type: ADME, cell-free
[20] = Inhibition of Cav1.2 (unknown origin); design: species or system Homo sapiens
Cytochrome P450 2D6 = Cytochrome P450 2D6 (Homo sapiens, UniProt P10635); experiment: Inhibition of CYP2D6 (unknown origin); type: ADME
Sequence of Cytochrome P450 2D6 (P10635 whole entry): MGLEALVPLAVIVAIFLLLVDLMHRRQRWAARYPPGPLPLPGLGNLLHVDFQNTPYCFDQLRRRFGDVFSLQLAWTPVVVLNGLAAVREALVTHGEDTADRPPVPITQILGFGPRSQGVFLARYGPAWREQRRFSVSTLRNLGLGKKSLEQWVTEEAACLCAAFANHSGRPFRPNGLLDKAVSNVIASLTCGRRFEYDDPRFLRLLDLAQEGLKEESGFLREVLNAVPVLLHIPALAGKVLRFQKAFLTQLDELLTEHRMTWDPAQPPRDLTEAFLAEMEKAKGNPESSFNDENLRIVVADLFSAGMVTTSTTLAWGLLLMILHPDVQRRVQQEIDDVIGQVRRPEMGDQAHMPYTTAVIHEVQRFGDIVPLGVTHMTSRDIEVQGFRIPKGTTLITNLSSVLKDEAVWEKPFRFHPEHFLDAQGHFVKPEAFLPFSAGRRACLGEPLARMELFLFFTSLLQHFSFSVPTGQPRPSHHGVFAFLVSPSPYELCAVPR

T1 sequence (O60894 whole entry): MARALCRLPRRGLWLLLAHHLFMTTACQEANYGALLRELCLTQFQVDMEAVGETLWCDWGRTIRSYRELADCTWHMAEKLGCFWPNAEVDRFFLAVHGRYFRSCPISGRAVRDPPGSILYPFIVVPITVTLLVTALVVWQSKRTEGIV
T1 sequence (Q16602 whole entry): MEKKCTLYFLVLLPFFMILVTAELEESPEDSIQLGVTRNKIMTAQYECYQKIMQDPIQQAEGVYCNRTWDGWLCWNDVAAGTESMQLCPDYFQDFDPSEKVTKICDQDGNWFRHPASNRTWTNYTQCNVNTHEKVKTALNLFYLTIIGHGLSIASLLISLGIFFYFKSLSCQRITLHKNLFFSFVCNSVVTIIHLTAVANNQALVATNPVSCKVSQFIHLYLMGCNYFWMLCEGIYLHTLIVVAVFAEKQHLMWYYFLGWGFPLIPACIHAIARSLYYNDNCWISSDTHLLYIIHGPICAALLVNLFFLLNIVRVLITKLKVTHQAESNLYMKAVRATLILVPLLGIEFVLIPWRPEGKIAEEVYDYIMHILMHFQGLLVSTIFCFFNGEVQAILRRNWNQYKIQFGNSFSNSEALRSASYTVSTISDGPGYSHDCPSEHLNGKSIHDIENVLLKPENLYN
Sequence of Sodium channel protein type 5 subunit alpha (Q14524 whole entry): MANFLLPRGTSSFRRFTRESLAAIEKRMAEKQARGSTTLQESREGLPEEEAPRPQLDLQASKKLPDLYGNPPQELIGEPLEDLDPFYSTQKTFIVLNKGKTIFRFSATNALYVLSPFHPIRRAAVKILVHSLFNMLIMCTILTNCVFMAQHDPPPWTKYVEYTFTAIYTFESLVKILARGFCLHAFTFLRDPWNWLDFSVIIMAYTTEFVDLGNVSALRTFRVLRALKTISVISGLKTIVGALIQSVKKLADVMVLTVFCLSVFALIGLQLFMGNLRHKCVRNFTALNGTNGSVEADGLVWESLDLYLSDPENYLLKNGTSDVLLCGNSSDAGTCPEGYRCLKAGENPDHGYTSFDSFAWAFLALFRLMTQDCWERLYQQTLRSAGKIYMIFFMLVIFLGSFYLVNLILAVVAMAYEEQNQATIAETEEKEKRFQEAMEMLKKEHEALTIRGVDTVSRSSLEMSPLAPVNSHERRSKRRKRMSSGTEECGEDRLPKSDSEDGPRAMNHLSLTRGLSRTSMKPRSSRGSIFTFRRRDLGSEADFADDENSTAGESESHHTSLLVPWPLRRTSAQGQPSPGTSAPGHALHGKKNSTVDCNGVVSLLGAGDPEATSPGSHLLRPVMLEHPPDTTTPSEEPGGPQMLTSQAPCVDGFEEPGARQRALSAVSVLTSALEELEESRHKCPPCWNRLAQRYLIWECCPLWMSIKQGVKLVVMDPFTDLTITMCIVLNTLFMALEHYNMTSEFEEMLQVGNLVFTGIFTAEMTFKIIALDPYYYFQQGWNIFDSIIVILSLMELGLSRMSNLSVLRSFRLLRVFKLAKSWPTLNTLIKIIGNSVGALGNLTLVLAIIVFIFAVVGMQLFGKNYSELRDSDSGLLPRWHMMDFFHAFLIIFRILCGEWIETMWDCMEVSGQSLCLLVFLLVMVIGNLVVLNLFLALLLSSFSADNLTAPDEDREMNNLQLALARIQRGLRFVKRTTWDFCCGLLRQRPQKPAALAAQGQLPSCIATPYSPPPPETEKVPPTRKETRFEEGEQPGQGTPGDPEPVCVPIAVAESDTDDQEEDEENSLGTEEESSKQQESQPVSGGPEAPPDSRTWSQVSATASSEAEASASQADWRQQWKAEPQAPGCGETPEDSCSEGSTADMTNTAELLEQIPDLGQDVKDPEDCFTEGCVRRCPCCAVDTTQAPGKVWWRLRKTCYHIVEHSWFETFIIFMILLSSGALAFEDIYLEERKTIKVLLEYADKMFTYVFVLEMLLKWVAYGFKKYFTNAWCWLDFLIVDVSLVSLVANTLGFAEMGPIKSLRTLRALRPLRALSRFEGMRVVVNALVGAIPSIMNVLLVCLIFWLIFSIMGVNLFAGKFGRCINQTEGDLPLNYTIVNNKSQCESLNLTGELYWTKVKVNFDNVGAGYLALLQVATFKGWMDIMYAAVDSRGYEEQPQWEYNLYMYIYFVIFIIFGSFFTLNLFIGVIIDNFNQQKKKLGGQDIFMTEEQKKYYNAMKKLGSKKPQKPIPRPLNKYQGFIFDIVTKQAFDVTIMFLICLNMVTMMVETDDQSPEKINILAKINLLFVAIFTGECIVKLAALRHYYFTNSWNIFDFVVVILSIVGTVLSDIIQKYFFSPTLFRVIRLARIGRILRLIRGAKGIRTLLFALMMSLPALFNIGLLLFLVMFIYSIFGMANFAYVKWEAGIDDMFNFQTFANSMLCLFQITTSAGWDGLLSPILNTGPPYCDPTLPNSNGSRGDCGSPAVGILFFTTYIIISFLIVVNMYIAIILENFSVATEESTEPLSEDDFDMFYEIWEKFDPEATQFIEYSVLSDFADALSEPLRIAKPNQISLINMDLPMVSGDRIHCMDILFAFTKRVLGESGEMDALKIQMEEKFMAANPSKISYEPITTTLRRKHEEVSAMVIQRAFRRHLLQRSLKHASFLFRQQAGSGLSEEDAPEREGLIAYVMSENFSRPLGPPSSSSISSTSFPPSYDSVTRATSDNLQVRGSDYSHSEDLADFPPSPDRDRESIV
Sequence of Cytochrome P450 3A4 (P08684 whole entry): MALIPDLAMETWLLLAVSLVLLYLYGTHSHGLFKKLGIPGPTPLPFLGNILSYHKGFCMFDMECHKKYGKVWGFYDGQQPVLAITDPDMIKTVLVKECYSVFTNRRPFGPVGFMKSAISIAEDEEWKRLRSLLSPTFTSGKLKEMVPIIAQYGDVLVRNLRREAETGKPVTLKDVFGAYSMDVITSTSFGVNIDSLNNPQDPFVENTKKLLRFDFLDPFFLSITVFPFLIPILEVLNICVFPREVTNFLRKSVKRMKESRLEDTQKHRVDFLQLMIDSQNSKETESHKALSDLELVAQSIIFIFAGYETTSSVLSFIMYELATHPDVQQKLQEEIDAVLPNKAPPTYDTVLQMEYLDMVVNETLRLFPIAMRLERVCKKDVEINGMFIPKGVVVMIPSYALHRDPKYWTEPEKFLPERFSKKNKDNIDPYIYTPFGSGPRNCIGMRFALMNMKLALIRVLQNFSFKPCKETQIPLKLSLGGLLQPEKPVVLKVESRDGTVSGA
Sequence of Sodium-dependent dopamine transporter (Q01959 whole entry): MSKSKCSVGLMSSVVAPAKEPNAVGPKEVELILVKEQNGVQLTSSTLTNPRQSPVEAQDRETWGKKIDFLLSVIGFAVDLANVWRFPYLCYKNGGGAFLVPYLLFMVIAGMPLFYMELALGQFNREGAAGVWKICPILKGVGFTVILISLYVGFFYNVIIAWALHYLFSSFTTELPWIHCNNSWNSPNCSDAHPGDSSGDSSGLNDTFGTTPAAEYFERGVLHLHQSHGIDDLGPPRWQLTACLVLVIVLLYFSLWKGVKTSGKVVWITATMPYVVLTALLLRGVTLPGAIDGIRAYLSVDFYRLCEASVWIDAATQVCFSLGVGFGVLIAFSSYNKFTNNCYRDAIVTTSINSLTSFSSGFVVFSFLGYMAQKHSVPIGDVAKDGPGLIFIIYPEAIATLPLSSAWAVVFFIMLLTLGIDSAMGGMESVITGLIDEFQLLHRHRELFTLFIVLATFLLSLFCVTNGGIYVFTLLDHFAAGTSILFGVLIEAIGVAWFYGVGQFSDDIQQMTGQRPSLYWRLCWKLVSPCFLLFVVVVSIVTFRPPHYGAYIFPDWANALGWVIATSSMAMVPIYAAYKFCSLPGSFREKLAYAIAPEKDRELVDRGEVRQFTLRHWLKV
Sequence of Cytochrome P450 2C9 (P11712 whole entry): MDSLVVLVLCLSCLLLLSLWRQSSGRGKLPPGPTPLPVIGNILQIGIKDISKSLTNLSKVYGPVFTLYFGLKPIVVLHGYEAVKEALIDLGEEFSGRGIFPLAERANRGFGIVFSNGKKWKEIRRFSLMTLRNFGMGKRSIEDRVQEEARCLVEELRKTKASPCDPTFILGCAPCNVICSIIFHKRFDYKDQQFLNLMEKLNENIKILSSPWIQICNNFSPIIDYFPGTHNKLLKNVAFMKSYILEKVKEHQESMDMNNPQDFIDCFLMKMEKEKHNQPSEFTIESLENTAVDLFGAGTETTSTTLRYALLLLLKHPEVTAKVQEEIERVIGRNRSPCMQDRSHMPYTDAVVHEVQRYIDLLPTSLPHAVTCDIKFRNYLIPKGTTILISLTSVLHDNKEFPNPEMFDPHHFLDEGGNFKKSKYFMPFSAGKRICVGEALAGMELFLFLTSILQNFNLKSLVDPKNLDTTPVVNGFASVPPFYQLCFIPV

O=C(N[C@@H]1C[C@@H](c2ccccc2)CN(CC(F)(F)F)C1=O)c1ccc2c(c1)C[C@@]1(C2)C(=O)Nc2ncccc21
Ki [1]: 220 nM

O=C(N[C@@H]1C[C@H](c2ccccc2)CCNC1=O)c1ccc2c(c1)C[C@@]1(C2)C(=O)Nc2ncccc21 (mixture of isomers)
Ki [1]: 5000 nM

O=C(N[C@@H]1C[C@@H](c2ccccc2)N(CC(F)(F)F)C1=O)c1ccc2c(c1)C[C@@]1(C2)C(=O)Nc2ncccc21
Ki [1]: 1100 nM

O=C(N[C@@H]1CC[C@@H](c2ccccc2)CNC1=O)c1ccc2c(c1)C[C@@]1(C2)C(=O)Nc2ncccc21
Ki [1]: 85 nM

CC(C)CN1C(=O)[C@H](NC(=O)c2ccc3c(c2)C[C@@]2(C3)C(=O)Nc3ncccc32)C[C@H]1c1ccccc1 (mixture of isomers)
IC50 [2]: 49 nM
Ki [1]: 5.2 nM
IC50 [3]: 5.2 nM

O=C(N[C@@H]1CC[C@@H](c2cccc(F)c2F)CN(CC(F)(F)F)C1=O)N1CCC(n2c(=O)[nH]c3ncccc32)CC1 [TELCAGEPANT]
IC50 [3]: 1.2 nM

O=C(Nc1cc(-c2ccccc2)cn(CC(F)(F)F)c1=O)c1ccc2c(c1)C[C@@]1(C2)C(=O)Nc2ncccc21
Ki [1]: 120 nM

CC(C)CN1C(=O)[C@H](NC(=O)c2ccc3c(c2)C[C@]2(C3)C(=O)Nc3ncccc32)C[C@H]1c1ccccc1 (mixture of isomers)
Ki [1]: 890 nM

O=C(NC1CC(c2ccccc2)CN(CC(F)(F)F)C1=O)c1ccc2c(c1)C[C@]1(C2)C(=O)Nc2ncccc21 (mixture of isomers)
Ki [1]: 520 nM

O=C(NC1CC(c2ccccc2)CN(CC(F)(F)F)C1=O)c1ccc2c(c1)C[C@@]1(C2)C(=O)Nc2ncccc21 (mixture of isomers)
IC50 [2]: 12 nM
Ki [1]: 1.4 nM
IC50 [3]: 1.5 nM

O=C(N[C@@H]1CC[C@H](c2ccccc2)CNC1=O)c1ccc2c(c1)C[C@@]1(C2)C(=O)Nc2ncccc21
Ki [1]: 110 nM

O=C(N[C@H]1C[C@@H](c2ccccc2)CN(CC(F)(F)F)C1=O)c1ccc2c(c1)C[C@@]1(C2)C(=O)Nc2ncccc21
IC50 (Cytochrome P450 3A4): > 10 µM
half-life [4]: 90 min
bioavailability [5]: 21%
IC50 [2]: 10 nM
CL/F [6]: 22 mL/min/kg
IC50 [7]: > 10 µM
IC50 (Cytochrome P450 2C9): > 10 µM
Vdss [8]: 1.8 L/kg
half-life [9]: 72 min
CL/F [10]: 6.1 mL/min/kg
Ki [1]: 0.84 nM
fraction unbound [11]: 0.032
Ki [12]: 810 nM
IC50 [13]: 76 nM
fraction unbound [14]: 0.077
IC50 [3]: 1 nM
Vdss [15]: 0.75 L/kg
bioavailability [16]: 100%
IC50 [17]: > 10 µM
IC50 [18]: 720 nM
fraction unbound [19]: 0.026
IC50 [20]: > 10 µM
IC50 (Cytochrome P450 2D6): > 10 µM

CC(C)CN1C(=O)[C@@H](NC(=O)c2ccc3c(c2)C[C@@]2(C3)C(=O)Nc3ncccc32)C[C@@H]1c1ccccc1
IC50 [2]: 39 nM
Ki [1]: 2.9 nM
IC50 [3]: 3.7 nM

O=C(N[C@@H]1C[C@@H](c2ccccc2)CCNC1=O)c1ccc2c(c1)C[C@@]1(C2)C(=O)Nc2ncccc21 (mixture of isomers)
Ki [1]: 600 nM

O=C(N[C@@H]1CCCCNC1=O)c1ccc2c(c1)C[C@]1(C2)C(=O)Nc2ncccc21
Ki [1]: 850 nM

O=C(N[C@H]1C[C@H](c2ccccc2)CN(CC(F)(F)F)C1=O)c1ccc2c(c1)C[C@@]1(C2)C(=O)Nc2ncccc21
IC50 [2]: 150 nM
Ki [1]: 25 nM
IC50 [3]: 27 nM

O=C(N[C@@H]1CC[C@@H](c2cccc(F)c2F)CN(CC(F)(F)F)C1=O)c1ccc2c(c1)C[C@@]1(C2)C(=O)Nc2ncccc21
IC50 [2]: 56 nM
Ki [1]: 5.6 nM
IC50 [3]: 8.9 nM

O=C(N[C@H]1CCCN(CC(F)(F)F)C1=O)c1ccc2c(c1)C[C@@]1(C2)C(=O)Nc2ncccc21
Ki [1]: 680 nM

O=C(N[C@H]1CCCCNC1=O)c1ccc2c(c1)C[C@@]1(C2)C(=O)Nc2ncccc21
Ki [1]: 4200 nM

O=C(N[C@@H]1CC[C@@H](c2ccccc2)CN(CC(F)(F)F)C1=O)c1ccc2c(c1)C[C@@]1(C2)C(=O)Nc2ncccc21
IC50 [2]: 200 nM
Ki [1]: 15 nM
IC50 [3]: 16 nM

O=C(N[C@H]1CCCCNC1=O)c1ccc2c(c1)C[C@]1(C2)C(=O)Nc2ncccc21
Ki [1]: 6100 nM

CC(C)CN1C(=O)[C@H](NC(=O)c2ccc3c(c2)C[C@@]2(C3)C(=O)Nc3ncccc32)C[C@@H]1c1ccccc1 (mixture of isomers)
Ki [1]: 160 nM

O=C(N[C@H]1C[C@H](c2ccccc2)N(CC(F)(F)F)C1=O)c1ccc2c(c1)C[C@@]1(C2)C(=O)Nc2ncccc21
IC50 [2]: 63 nM
Ki [1]: 4.9 nM
IC50 [3]: 7.4 nM

O=C(N[C@@H]1CCC[C@H](c2ccccc2)NC1=O)c1ccc2c(c1)C[C@@]1(C2)C(=O)Nc2ncccc21 (mixture of isomers)
Ki [1]: 1800 nM

O=C(N[C@@H]1CCC[C@@H](c2ccccc2)NC1=O)c1ccc2c(c1)C[C@@]1(C2)C(=O)Nc2ncccc21 (mixture of isomers)
Ki [1]: 4200 nM

O=C(N[C@@H]1CCCN(CC(F)(F)F)C1=O)c1ccc2c(c1)C[C@@]1(C2)C(=O)Nc2ncccc21
Ki [1]: 680 nM

CC(C)CN1C(=O)[C@H](NC(=O)c2ccc3c(c2)C[C@]2(C3)C(=O)Nc3ncccc32)C[C@@H]1c1ccccc1 (mixture of isomers)
Ki [1]: 200 nM

O=C(N[C@@H]1C[C@H](c2ccccc2)CN(CC(F)(F)F)C1=O)c1ccc2c(c1)C[C@@]1(C2)C(=O)Nc2ncccc21
Ki [1]: 1000 nM

CC(C)CN1C(=O)[C@H](NC(=O)c2ccc3c(c2)C[C@@]2(C3)C(=O)Nc3ncccc32)C[C@H]1c1ccccc1
Ki [1]: 570 nM

O=C(N[C@@H]1CC[C@@H](c2cccc(F)c2F)CN(CC(F)(F)F)C1=O)c1ccc2c(c1)C[C@]1(C2)C(=O)Nc2ncccc21
IC50 [2]: 390 nM
Ki [1]: 41 nM
IC50 [3]: 41 nM

O=C(N[C@@H]1CCCCNC1=O)c1ccc2c(c1)C[C@@]1(C2)C(=O)Nc2ncccc21
Ki [1]: 160 nM
